Measurements: patent US11371025B2, “Non-covalent loading of plant picovirus particles” (CASE WESTERN RESERVE UNIVERSITY, priority 2013, dated 2022)
pIC50: −log10 of the molar value. Structures can show the parent of a compound that is named as a salt. Each block holds one molecule with its values, some of them ahead of it.

Columns and labels:
[1] = tested on: HeLa cells; settings: 0.2 μM DAPI, 60 min incubation
Procedure: Cells were fixed and stained with WGA-A488 (Invitrogen) as described above. […] Confocal images were captured and analyzed as described above.
For delivery studies, the DAPI concentration was five magnitudes lower measuring only 0.2 μM DAPI.

[2] = tested on: HeLa cells; assay: XTT cell viability assay, HeLa; assay type: cell-based, human; settings: drug concentration, 24 h exposure, washed, further 24 h
[3] = tested on: HT-29 cells; assay: XTT cell viability assay, HT-29; assay type: cell-based; settings: Homo sapiens, drug concentration, 24 h exposure, washed, further 24 h
[4] = tested on: PC-3 cells; assay: XTT cell viability assay, PC-3; assay type: cell-based; settings: Homo sapiens, drug concentration, 24 h exposure, washed, further 24 h

Molecule: 4′,6-diamidino-2-phenylindole [DAPI]
- fluorescent signals from the nuclei [1]: do not show any apparent fluorescent signals

- pIC50 ([2]; Homo sapiens): 5.54 to 5.74
- pIC50 [3]: 5.21
- pIC50 [4]: 5.21
Molecule: Nc1ccc2cc3ccc(N)cc3nc2c1 [proflavine, 3,6-diaminoacridine hydrochloride]

Molecule: N.N.[Cl][Pt][Cl] [CDDP, cis-dichlorodiammine platinum(II)]
- pIC50 [2]: 4.68 to 4.92
